Measured values as given in patent US20250084079A1, “COMPOSITIONS AND METHODS FOR INHIBITION OF RAS” (TheRas, Inc., priority 2022, published 2025).
Like-named read-outs stand apart in the source and are kept apart here.

How the values were obtained:
[1] = biological target: T1, Avi-KRAS G12V (1-169) GppNHp/RAF1 RBD-3xFLAG (52-151) (Homo sapiens, UniProt P01116, G12V); test: RAS-effector PPI HTRF disruption assay, Raf1-GppNHp-KRAS G12V; assay type: biochemical
T1 construct: 50 nM Avi-KRAS G12V (1-169) GppNHp
Experimental: (§1) A protein:protein interaction (PPI) Homogeneous Time Resolved Fluorescence (HTRF) assay was used to determine the effectiveness of compounds of the present disclosure in disrupting KRAS protein and effector (RAF1 or PIK3 CA) binding.
(§2) The HTRF assay used the following reagents and proteins: (i) 375 nM Avi-KRAS G12D/Q25A (1-169) GppNHp/3×FLAG-PI3KCA (157-299); (ii) 100 nM Avi-KRAS G12D (1-169) GppNHp/RAF1 RBD-3×FLAG (52-151); (iii) 50 nM Avi-KRAS G12V (1-169) GppNHp/RAF1 RBD-3×FLAG (52-151); (iv) 50 nM Avi-KRAS WT (1-169) GppNHp/RAF1 RBD-3×FLAG (52-151); and (v) 35 nM Avi-PI3K RBD CA-3×FLAG; Assay Buffer: 50 mM Tris pH 7.5, 100 mM NaCl, 5 mM MgCl2, 0.1% BSA, 0.01% Tween, 1 mM TCEP, 10% DMSO; Bead Buffer: 50 mM Tris pH 7.5, 0.01% Tween 20; Assay volume: 20 μL (384 well plate-low volume format); and Compound titration: 100-0.02 μM, 3× dilution series.
(§3) The HTRF assay employed the following protocol:
(§4) Compounds were dispensed in assay plate (384-well, Grenier Bione #784075) using Echo (model 555) with dose response settings: 200 nL final volume, titration from 100 μM as a 10-point dilution series. Protein mix was prepared in assay buffer, and dispensed on plates, 10 μL per well, then incubated for 1 h at room temperature, with 700 rpm shaking. Reagents mix was prepared and dispensed on plates, 10 μL per well, then incubated for 1 h at room temperature, with 700 rpm shaking.
(§5) Plates were analyzed on an Envision plate reader using the following setting: Excitation 320 nm, Bandwidth […]; Emission 615 nm, Bandwidth […], Gain 100%, Flashes 100, Lag 60 μs. Data was reported as percentage of activity, with DMSO as 100%. Data was plotted and analyzed using Prism 8. The SPR Kd, biochemical Raf1-KRAS G12D/G12V/WT-GppNHP and PI3KCA-KRAS G12D/Q25A-GppNHp disruption assay IC50 of selected compounds described herein are shown in Table 4.

[2] = biological target: T2, Avi-KRAS WT (1-169) GppNHp/RAF1 RBD-3xFLAG (52-151) (Homo sapiens, UniProt P01116); test: RAS-effector PPI HTRF disruption assay, Raf1-GppNHp-KRAS WT; assay type: biochemical
T2 construct: 50 nM Avi-KRAS WT (1-169) GppNHp
Experimental: as §1, §2, §3, §4, §5

[3] = biological target: T3, Avi-KRAS G12D/Q25A (1-169) GppNHp/3xFLAG-PI3KCA (157-299) (Homo sapiens, UniProt P01116, G12D/Q25A); test: RAS-effector PPI HTRF disruption assay, PI3KCA-GppNHp-KRAS G12D/Q25A; assay type: biochemical
T3 construct: 375 nM Avi-KRAS G12D/Q25A (1-169) GppNHp
Experimental: as §1, §2, §3, §4, §5

[4] = biological target: T4, Avi-KRAS G12D (1-169) GppNHp/RAF1 RBD-3xFLAG (52-151) (Homo sapiens, UniProt P01116, G12D); test: RAS-effector PPI HTRF disruption assay, Raf1-GppNHp-KRAS G12D; assay type: biochemical
T4 construct: 100 nM Avi-KRAS G12D (1-169) GppNHp
Experimental: as §1, §2, §3, §4, §5

[5] = test system: pERK in GP2d cells (KRAS G12D); test: Cell-based pERK HTRF assay in GP2d cell; settings: 60 min incubation
Experimental: A pERK assay (Perkin Elmer) was used to determine the effectiveness of compounds in disrupting KRAS G12D protein/effector signaling in cells.
On Day 1, cells (GP2d) were seeded into 96-well plates at 3×10^4 cells/well in 80 μL complete growth media (DMEM, 10% FBS).
On Day 2, cells were treated with compounds at 0.25% DMSO. The source plate was created with compounds diluted in media at 5-fold the final assay concentration. The compounds were run in a 9-point concentration curve starting at 1 μM, with a half-log dilution between concentrations. 20 μL was transferred onto the cell plates (final volume in wells was 100 μL). Plates were harvested after 60 min incubation by aspirating media and adding kit-supplied 1× supplemented lysis buffer to all wells (50 μL per well). Plates were then placed on a plate shaker and incubated at 850 rpm for an additional 30 min.
Antibody mixture solution is prepared by diluting aliquoted d2 and Eu Cryptate antibodies 1:20 in kit supplied detection buffer, mix the diluted antibodies solutions (1:1 v:v). 4 μL of this solution is then added to a 384-well detection plate (Perkin Elmer; 6008230).
Samples were homogenized by pipetting up and down and then transferred (16 μL of cell lysates) from the 96-well cell culture plate to two wells of the HTRF 384-well detection plate containing the antibody solution. Plates were centrifuged (524 g for 1 min) and allowed to incubate between 4 and 24 h at room temperature. Maximum signal is reached after 4 h incubation time and remains stable over a period of 24 hours. Therefore, readings can be made between 4 and 24 h of incubation. Plates were centrifuged again (524 g for Imin), then analyzed on the EnVision plate reader using the following settings: Excitation 320 nm, Bandwidth 75 nm; Emission 615 nm, Bandwidth 85 nm; Gain 100%; Flashes 100; Lag 60 μs.

T4 sequence (P01116 1-169 isoform P01116-2 G12D): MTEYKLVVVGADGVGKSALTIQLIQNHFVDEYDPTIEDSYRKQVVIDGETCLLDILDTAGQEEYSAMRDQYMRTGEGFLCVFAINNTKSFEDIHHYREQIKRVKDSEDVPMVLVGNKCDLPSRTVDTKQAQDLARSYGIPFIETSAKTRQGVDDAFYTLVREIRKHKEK
T1 sequence (P01116 1-169 isoform P01116-2 G12V): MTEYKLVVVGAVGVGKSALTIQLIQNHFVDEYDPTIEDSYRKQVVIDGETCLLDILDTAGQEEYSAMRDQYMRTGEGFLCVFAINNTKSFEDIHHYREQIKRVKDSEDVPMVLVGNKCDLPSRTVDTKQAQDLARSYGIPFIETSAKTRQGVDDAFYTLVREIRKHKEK
T3 sequence (P01116 1-169 isoform P01116-2 G12D/Q25A): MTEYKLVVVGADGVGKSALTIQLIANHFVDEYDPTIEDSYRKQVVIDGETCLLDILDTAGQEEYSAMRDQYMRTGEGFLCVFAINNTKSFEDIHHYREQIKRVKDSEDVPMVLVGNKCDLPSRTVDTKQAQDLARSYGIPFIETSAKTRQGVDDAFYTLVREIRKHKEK
T2 sequence (P01116 1-169 isoform P01116-2): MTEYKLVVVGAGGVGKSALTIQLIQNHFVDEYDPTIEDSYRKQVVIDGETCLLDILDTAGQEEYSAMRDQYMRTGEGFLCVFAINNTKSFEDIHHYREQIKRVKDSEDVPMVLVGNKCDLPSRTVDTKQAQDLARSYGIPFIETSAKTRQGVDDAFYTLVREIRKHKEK

| IC50 [1] | IC50 [2] | IC50 [3] | IC50 [4] | IC50 ([5]; GP2d, 1 h) | IC50 ([5]; read-out: pERK-Gp2D-1 hr) | SMILES |
| --- | --- | --- | --- | --- | --- | --- |
| 1000 to 10000 nM | 1000 to 10000 nM | 100 to 1000 nM | 100 to 1000 nM |  | 100 to 1000 nM | Nc1nc2c(-c3c(C(F)(F)F)cc4c(O[C@@H]5CCNC5)nc(OC[C@@]56CCCN5C[C@H](F)C6)nc4c3Cl)ccc(F)c2s1 (atropisomer, axis not shown) [Compound 10] |
| 100 to 1000 nM | 100 to 1000 nM | 100 to 1000 nM | 100 to 1000 nM |  | ≤ 100 nM | C[C@@H]1C[C@H](Oc2nc(OC[C@@]34CCCN3C[C@H](F)C4)nc3c(F)c(-c4ccc(F)c5sc(N)c(C#N)c45)c(Cl)cc23)CN1 (atropisomer, axis not shown) [Compound 60] |
| > 10000 nM | > 10000 nM | > 10000 nM | > 10000 nM |  | > 1000 nM | C[C@@H]1C[C@H](Oc2nc(OC[C@@]34CCCN3C[C@H](F)C4)nc3c(F)c(-c4ccc(F)c5sc(N)c(C#N)c45)c(Cl)cc23)CN1 (atropisomer, axis not shown) [Compound 61] |
| > 10000 nM | > 10000 nM | > 10000 nM | > 10000 nM | > 1000 nM |  | N#Cc1c(N)sc2c(F)ccc(-c3c(Cl)cc4c(O[C@@H]5CNC[C@H]5F)nc(OC[C@@]56CCCN5C[C@H](F)C6)nc4c3F)c12 (atropisomer, axis not shown) [Compound 64] |
| 100 to 1000 nM | 100 to 1000 nM | 100 to 1000 nM | ≤ 100 nM |  | 100 to 1000 nM | N#Cc1c(N)sc2c(F)ccc(-c3c(Cl)cc4c(O[C@@H]5CN[C@@H](CO)C5)nc(OC[C@@]56CCCN5C[C@H](F)C6)nc4c3F)c12 (atropisomer, axis not shown) [Compound 69] |
| > 10000 nM | > 10000 nM | > 10000 nM | > 10000 nM |  | > 1000 nM | N#Cc1c(N)sc2c(F)ccc(-c3c(Cl)cc4c(O[C@H]5CCN[C@@H]5CO)nc(OC[C@@]56CCCN5C[C@H](F)C6)nc4c3F)c12 (atropisomer, axis not shown) [Compound 75] |
| ≤ 100 nM | ≤ 100 nM | ≤ 100 nM | ≤ 100 nM |  | ≤ 100 nM | N#Cc1c(N)sc2c(F)ccc(-c3c(Cl)cc4c(O[C@H]5CCN[C@@H]5CO)nc(OC[C@@]56CCCN5C[C@H](F)C6)nc4c3F)c12 (atropisomer, axis not shown) [Compound 76] |
| ≤ 100 nM | ≤ 100 nM | ≤ 100 nM | ≤ 100 nM |  | ≤ 100 nM | C[C@H]1NCC[C@H]1Oc1nc(OC[C@@]23CCCN2C[C@H](F)C3)nc2c(F)c(-c3ccc(F)c4sc(N)c(C#N)c34)c(C(F)(F)F)cc12 (single isomer, unassigned) [Compound 73] |
| 1000 to 10000 nM | 100 to 1000 nM | 1000 to 10000 nM | 100 to 1000 nM | ≤ 100 nM |  | Nc1nc2c(-c3c(C(F)(F)F)cc4c(O[C@H]5CCNC5)nc(OC[C@@]56CCCN5C[C@H](F)C6)nc4c3F)ccc(F)c2s1 [Compound 13] |
| > 10000 nM | > 10000 nM | > 10000 nM | > 10000 nM | > 1000 nM |  | C[C@@H]1CNCC1Oc1nc(OC[C@@]23CCCN2C[C@H](F)C3)nc2c(F)c(-c3ccc(F)c4scnc34)c(C(F)(F)F)cc12 (stereo partly shown) [Compound 14] |

Further lines, the compound ahead of its results:

| SMILES | IC50 [1] | IC50 [2] | IC50 [3] | IC50 [4] | IC50 ([5]; GP2d, 1 h) | IC50 ([5]; read-out: pERK-Gp2D-1 hr) |
| --- | --- | --- | --- | --- | --- | --- |
| C[C@@H]1NCC[C@H]1Oc1nc(OC[C@@]23CCCN2C[C@H](F)C3)nc2c(F)c(-c3ccc(F)c4sc(N)nc34)c(C(F)(F)F)cc12 (atropisomer, axis not shown) [Compound 8] | 1000 to 10000 nM | 1000 to 10000 nM | 100 to 1000 nM | 100 to 1000 nM | 100 to 1000 nM |  |
| C[C@@H]1NCC[C@H]1Oc1nc(OC[C@@]23CCCN2C[C@H](F)C3)nc2c(F)c(-c3ccc(F)c4sc(N)nc34)c(C(F)(F)F)cc12 (atropisomer, axis not shown) [Compound 9] | > 10000 nM | > 10000 nM | > 10000 nM | > 10000 nM |  |  |
| Nc1nc2c(-c3c(C(F)(F)F)cc4c(O[C@@H]5CCNC5)nc(OC[C@@]56CCCN5C[C@H](F)C6)nc4c3Cl)ccc(F)c2s1 (atropisomer, axis not shown) [Compound 11] | > 10000 nM | > 10000 nM | > 10000 nM | > 10000 nM |  | > 1000 nM |
| Nc1nc2c(-c3c(C(F)(F)F)cc4c(O[C@H]5CNCC5(F)F)nc(OC[C@@]56CCCN5C[C@H](F)C6)nc4c3F)ccc(F)c2s1 (atropisomer, axis not shown) [Compound 29] | > 10000 nM | > 10000 nM | > 10000 nM | > 10000 nM |  | > 1000 nM |
| N#Cc1c(N)sc2c(F)ccc(-c3c(Cl)cc4c(O[C@@H]5CN[C@@H](CO)C5)nc(OC[C@@]56CCCN5C[C@H](F)C6)nc4c3F)c12 (atropisomer, axis not shown) [Compound 68] | > 10000 nM | > 10000 nM | > 10000 nM | > 10000 nM |  | > 1000 nM |
| C[C@H]1NCC[C@H]1Oc1nc(OC[C@@]23CCCN2C[C@H](F)C3)nc2c(F)c(-c3ccc(F)c4sc(N)c(C#N)c34)c(C(F)(F)F)cc12 (single isomer, unassigned) [Compound 74] | > 10000 nM | > 10000 nM | > 10000 nM | > 10000 nM |  | > 1000 nM |
| C[C@H]1CNCC1Oc1nc(OC[C@@]23CCCN2C[C@H](F)C3)nc2c(F)c(-c3ccc(F)c4sc(N)nc34)c(C(F)(F)F)cc12 (stereo partly shown) [Compound 2] | > 10000 nM | 1000 to 10000 nM | 1000 to 10000 nM | 1000 to 10000 nM |  |  |
| C[C@H]1CNCC1Oc1nc(OC[C@@]23CCCN2C[C@H](F)C3)nc2c(F)c(-c3ccc(F)c4scnc34)c(C(F)(F)F)cc12 (stereo partly shown) [Compound 12] | > 10000 nM | > 10000 nM | > 10000 nM | > 10000 nM | > 1000 nM |  |
| C[C@@H]1CNCC1Oc1nc(OC[C@@]23CCCN2C[C@H](F)C3)nc2c(F)c(-c3ccc(F)c4sc(N)nc34)c(C(F)(F)F)cc12 (stereo partly shown) [Compound 15] | 1000 to 10000 nM | 1000 to 10000 nM | 1000 to 10000 nM | 100 to 1000 nM | 100 to 1000 nM |  |
| Nc1nc2c(-c3c(C(F)(F)F)cc4c(O[C@H]5CNC[C@H]5F)nc(OC[C@@]56CCCN5C[C@H](F)C6)nc4c3F)ccc(F)c2s1 [Compound 22, 7-fluoro-4-(8-fluoro-4-(((3S,4R)-4-fluoropyrrolidin-3-yl)oxy)-2-(((2R,7aS)-2-fluorotetrahydro-1H-pyrrolizin-7a(5H)-yl)methoxy)-6-(trifluoromethyl)quinazolin-7-yl)benzo[d]thiazol-2-amine] | > 10000 nM | 1000 to 10000 nM | 1000 to 10000 nM | > 10000 nM |  |  |
